Reference: patent US20120039820A1 (Glaxo Group Limited, priority 2009, published 2012)

How the values were obtained:
[1] = test system: Escherichia coli; assay: MIC test (broth microdilution, turbidity); type: cell-based; conditions: TSB, 37° C., 24 hours
Method: (§1) The MIC of a material composition was determined by the following method. A fresh culture of the test inoculum of each bacterium was diluted in sterile 0.1% special peptone solution to give a concentration of approximately 10^6 colony forming units (cfu) per ml. Test samples of material were diluted in sterile tryptone soya broth (TSB) to give an initial stock solution, typically of 1% or 2% (10,000 or 20,000 ppm). However, it will be appreciated that the concentration of the initial stock solution of material can be varied if desired to investigate a different range of concentrations. Each row of a standard, 96-well plastic microtitre plate (labelled A-H) was allocated to one sample, i. e. eight samples per plate. Row H contained only TSB for use as a bacterial control to indicate the degree of turbidity resulting from bacterial growth in the absence of any test material.
(§2) Aseptically, 200 μl of the initial dilution of material was transferred to the 1st and 7th well of the appropriate row. All other test wells were filled with 100 μl of sterile TSB using an 8- channel micro-pipette. The contents of each of the wells in column 1 were mixed by sucking samples up and down the pipette tips, before 100 μl was transferred to column 2.
(§3) The same sterile pipette tips were used to transfer 100 μl of each well in column 7 into the appropriate well in column 8. This set of eight tips was then discarded into disinfectant solution. Using eight fresh, sterile tips the process was repeated by transferring 100 μl from column 2 into column 3 (and into 8 and 9). The process was continued until all the wells in columns 6 and 12 contained 200 μl. After mixing, 100 μl was discarded from wells in columns 6 and 12 to waste. Finally, 100 μl of pre-diluted bacterial test culture (approx 10^6 cfu/ml) was added, thus giving a final volume of 200 μl in each well.
(§4) A blank plate was prepared for each set of eight samples in exactly the same way, except that 100 μl of sterile TSB was added instead of the bacterial culture. This plate was used as the control plate against which the test plate (s) could be read.
(§5) Test and control plates were then sealed using autoclave tape and incubated at 37° C. for 24 hours. The wells were examined after 24 hours for turbidity to determine if the material had inhibited growth or not. Plates are then read in a suitable microtitre plate reader at an absorbance of 540 nm as a measure of turbidity resulting from bacterial growth. The control, un-inoculated plate for each set of samples was read first, and the plate reader then programmed to use the control readings to blank all other plate readings for the inoculated plates for the same set of test materials (i. e. removing turbidity due to material and possible colour changes during incubation). Thus, the corrected readings generated were absorbances resulting from turbidity from bacterial growth.

[2] = test system: Staphylococcus aureus; assay: MIC test (broth microdilution, turbidity); type: cell-based; conditions: TSB, 37° C., 24 hours
Method: as §1, §2, §3, §4, §5

[3] = test system: Streptococcus mutans; assay: MIC test (broth microdilution, turbidity); type: cell-based; conditions: TSB, 37° C., 24 hours
Method: as §1, §2, §3, §4, §5

[4] = test system: S. aureus; assay: Kill time suspension test; type: cell-based, Staphylococcus aureus
Method: This is set aside for approximately 2 minutes. 8 ml of test product is added, a timing clock started and immediately vortexed for 5 seconds.
To 8 ml of ‘Test Sample’ add 1 ml of sterile purified water and 1 ml of synthetic saliva. This is the ‘validation solution’.
The mean number of survivors is calculated for the each test and appropriate control samples, and expressed as the log to the base 10 (Log count).

Row | Compound | MIC [1] [parts per million] | MIC [2] [parts per million] | MIC [3] [parts per million] | kill (in words) [4]
1 | Cc1cc(O)ccc1C(C)C [IPMP, 4-isopropyl-3-methylphenol] | 312 | 156 | 1250 | –
2 | zinc gluconate [Zn Gluconate] | 1560 | 6250 | 6250 | ineffective
